Measurements as given in patent US20220087983A1, “ACTIVATING PYRUVATE KINASE R” (FORMA Therapeutics, Inc., priority 2020, published 2022).
“And” between values parts separate entries of the source, which are not always exact repeats. Identical values can stand only once.

Experiments:
CYP1A2 = assay: CYP mRNA induction in cultured human hepatocytes; format: in vitro ADME; conditions: donors AIH, EUJ, HC5-40 individually
ATP blood levels = assay: Phase 1: blood ATP levels in healthy volunteers (LC-MS/MS); format: in vivo, human; conditions: for Mean maximum percent change from baseline in ATP: all doses and timepoints
Experimental: (§1) In this study, SAD/MAD cohorts are randomized (3 to 1) to receive Compound 1 or placebo (P). Compound 1 was evaluated first in 4 healthy SAD cohorts and 4 healthy MAD (14-day dosing period) cohorts. Based on the safety, and PK/PD profile from HS, Compound 1 is then evaluated in 1 SCD SAD cohort and 2 SCD MAD cohorts. Specifically, based on the safety and pharmacokinetic/pharmacodynamics (PK/PD) profile in healthy volunteer studies, Compound 1 is evaluated in patients (pts) with SCD, first in a single dose (SD or SAD) cohort and then in multiple-dose (MD or MAD) cohorts (14-day and 12-week). Safety assessments include AEs, vital signs, ECGs and laboratory parameters. PK/PD blood sampling was performed on Day 1 (SAD/MAD) and Day 14 (MAD) and up to 72 h after the last dose and at the end-of-study visit. PD parameters included 2,3-DPG, ATP, and p50 in all cohorts with additional PD studies (including oxygen scan) performed only in the SCD cohorts. PD parameters included 2,3-DPG, ATP, p50, RBC deformability with controlled deoxygenation and reoxygenation (Lorrca® oxygen scan) and varying osmolality (Lorrca® osmoscan)). To maintain study blind, pt identifiers were removed when needed.
In the MAD cohorts, the subjects' blood ATP levels were measured […] by a qualified LC-MS/MS method for the quantitation of ATP in blood. […] Table 20A reports the median percentage change in blood ATP levels, relative to baseline, measured over time after the first dose on days 1 and 14 in healthy volunteers who received daily doses of Compound 1 (100 mg BID, 200 mg BID, 300 mg BID, or 400 mg QD) or placebo for 14 days. Table 20B reports the mean percentage change in ATP blood levels, relative to baseline, measured over time after the first dose on days 1 and 14 in healthy volunteers who received daily doses of Compound 1 (100 mg BID, 200 mg BID, 300 mg BID, or 400 mg QD) for 14 days.
The following procedures are employed for the analysis of ATP and 2,3-DPG in human whole blood K2EDTA using a protein precipitation extraction procedure and analysis by LC-MS/MS. […]

2,3-DPG blood levels = assay: Phase 1: blood 2,3-DPG levels in healthy volunteers (LC-MS/MS); format: in vivo, human; conditions: for Mean maximum percent change from baseline in 2,3-DPG: all doses and timepoints
Experimental: as §1
In the SAD cohorts, the subjects' blood 2,3-DPG levels were measured periodically after dosing by a qualified LC-MS/MS method for the quantitation of 2,3-DPG in blood. Decreased 2,3-DPG blood levels were observed 6 hours following a single dose of Compound 1 at all dose levels (earlier timepoints were not collected). Maximum decreases in 2,3-DPG levels generally occurred ˜24 hours after the first dose with the reduction sustained ˜48-72 hr postdose. Table 15 reports the median percentage change in 2,3-DPG blood levels, relative to baseline, measured over time in healthy volunteers after a single dose of Compound 1 (200 mg, 400 mg, 700 mg, or 1000 mg) or placebo. Table 16 reports the mean percentage change in 2,3-DPG blood levels, relative to baseline, measured over time in healthy volunteers after a single dose of Compound 1 (200 mg, 400 mg, 700 mg, or 1000 mg). Accordingly, the median and mean reduction in the concentration of 2,3-DPG, relative to baseline, was at least about 30% at all dose levels tested 24 hours after administration of the single dose.
In the MAD cohorts, the subjects' blood 2,3-DPG levels were measured periodically after dosing by a qualified LC-MS/MS method for the quantitation of 2,3-DPG in blood. The maximum decrease in 2,3-DPG on Day 14 was 55% from baseline (median). […] Table 18A reports the median percentage change in 2,3-DPG blood levels, relative to baseline, measured over time after the first dose on days 1 and 14 in healthy volunteers who received daily doses of Compound 1 (100 mg BID, 200 mg BID, or 300 mg BID) or placebo for 14 days. Table 18B reports the mean percentage change in 2,3-DPG blood levels, relative to baseline, measured over time after the first dose on days 1 and 14 in healthy volunteers who received daily doses of Compound 1 (100 mg BID, 200 mg BID, 300 mg BID, or 400 mg QD) for 14 days. Accordingly, the median and mean reduction in the concentration of 2,3-DPG, relative to baseline, was at least about 25% at all dose levels tested 24 hours after administration of the first dose on day 1 and at least about 40% at all dose levels tested 24 hours after administration of the first dose on day 14.
The following procedures are employed for the analysis of ATP and 2,3-DPG in human whole blood K2EDTA using a protein precipitation extraction procedure and analysis by LC-MS/MS.
The following procedures are used for sample extraction prior to analysis via LC-MS/MS. 15.0 μL of the calibration standards, quality controls, matrix blanks, and samples are aliquoted into a 96-well plate. 50.0 μL of the internal standard spiking solution is added to all samples on the plate, with the exception of the matrix blank samples; 50.0 μL of water is added to the matrix blank samples. […]

`O=C([C@H](CO)c1ccccc1)N1CC2=C(C1)CN(S(=O)(=O)c1cnc3c(c1)OCCO3)C2` (single isomer, unassigned) [Compound 1] was tested, and the “mRNA Fold Induction CYP1A2” value (CYP1A2; 0.033 μM) was 1.07 fold and 0.989 fold and 1.23 fold, the “mRNA Fold Induction CYP1A2” value (CYP1A2; 0.1 μM) was 0.942 fold and 0.958 fold and 1.05 fold and the “mRNA Fold Induction CYP1A2” value (CYP1A2; 0.33 μM) was 0.887 fold and 1.10 fold and 1.20 fold. For the same compound, the “mRNA Fold Induction CYP1A2” value (CYP1A2; 1 μM) was 0.911 fold and 1.20 fold and 1.14 fold, the “mRNA Fold Induction CYP1A2” value (CYP1A2; 3.3 μM) was 0.892 fold and 1.24 fold and 1.11 fold and the “mRNA Fold Induction CYP1A2” value (CYP1A2; 10 μM) was 1.02 fold and 1.33 fold and 1.25 fold. For the same compound, the “Mean maximum percent change from baseline in ATP” value (ATP blood levels; HV MAD, N = 36) was 68.5%, the “Mean maximum percent change from baseline in ATP” value (ATP blood levels; HV SAD, N = 24) was 24.4% and the “lag of maximum ATP increase behind maximum plasma concentration” value (ATP blood levels; HV, single 200-1000 mg dose) was “at least 24 hours”. The “maximum decrease in 2,3-DPG on Day 14 from baseline (median)” value (2,3-DPG blood levels; HV MAD cohorts) was 55%, the “median and mean reduction of 2,3-DPG relative to baseline” value (2,3-DPG blood levels; HV MAD, all dose levels, 24 hours after first dose on day 1) was “at least 25%” and the “median and mean reduction of 2,3-DPG relative to baseline” value (2,3-DPG blood levels; HV MAD, all dose levels, 24 hours after first dose on day 14) was “at least 40%”. The “Mean maximum percent change from baseline in 2,3-DPG” value (2,3-DPG blood levels; HV MAD, N = 36) was −56.3%, the “Mean maximum percent change from baseline in 2,3-DPG” value (2,3-DPG blood levels; HV SAD, N = 24) was −46.8% and the “median and mean reduction of 2,3-DPG relative to baseline” value (2,3-DPG blood levels; HV, all single dose levels, 24 hours after dose) was “at least 30%”. The “lag of maximum 2,3-DPG decrease behind maximum plasma concentration” value (2,3-DPG blood levels; HV, single 200-1000 mg dose) was “about 24 hours”, the “Median percentage change in 2,3-DPG levels” value (shortened to “Median percentage change”) (2,3-DPG blood levels; HV, single dose 200 mg, 0 h after dose) was 0.0% and the “Median percentage change” value (2,3-DPG blood levels; HV, single dose 200 mg, 8 h after dose) was −17%. For the same compound, the “Median percentage change” value (2,3-DPG blood levels; HV, single dose 200 mg, 48 h after dose) was −29%, the “Median percentage change” value (2,3-DPG blood levels; HV, single dose 400 mg, 0 h after dose) was 0.0% and the “Median percentage change” value (2,3-DPG blood levels; HV, single dose 400 mg, 8 h after dose) was −29%. The “Median percentage change” value (2,3-DPG blood levels; HV, single dose 400 mg, 72 h after dose) was −30%, the “Median percentage change” value (2,3-DPG blood levels; HV, single dose 700 mg, 0 h after dose) was 0.0% and the “Median percentage change” value (2,3-DPG blood levels; HV, single dose 700 mg, 6 h after dose) was −29%. The “Median percentage change” value (2,3-DPG blood levels; HV, single dose 700 mg, 16 h after dose) was −46%, the “Median percentage change” value (2,3-DPG blood levels; HV, single dose 700 mg, 36 h after dose) was −46% and the “Median percentage change” value (2,3-DPG blood levels; HV, single dose 1000 mg, 36 h after dose) was −47%.
